Here are results for 24 molecules from patent publication US20250171437A1 (Agios Pharmaceuticals,Inc., priority 2022, published 2025).

Bounds are passed on as bounds.

For the experiment, the target named is T1, human PAH with the R408W mutation (A375 R408W cells) (Homo sapiens, UniProt P00439, R408W).
T1 construct: expressed in transfected cells
T1 sequence (P00439 1-452 R408W): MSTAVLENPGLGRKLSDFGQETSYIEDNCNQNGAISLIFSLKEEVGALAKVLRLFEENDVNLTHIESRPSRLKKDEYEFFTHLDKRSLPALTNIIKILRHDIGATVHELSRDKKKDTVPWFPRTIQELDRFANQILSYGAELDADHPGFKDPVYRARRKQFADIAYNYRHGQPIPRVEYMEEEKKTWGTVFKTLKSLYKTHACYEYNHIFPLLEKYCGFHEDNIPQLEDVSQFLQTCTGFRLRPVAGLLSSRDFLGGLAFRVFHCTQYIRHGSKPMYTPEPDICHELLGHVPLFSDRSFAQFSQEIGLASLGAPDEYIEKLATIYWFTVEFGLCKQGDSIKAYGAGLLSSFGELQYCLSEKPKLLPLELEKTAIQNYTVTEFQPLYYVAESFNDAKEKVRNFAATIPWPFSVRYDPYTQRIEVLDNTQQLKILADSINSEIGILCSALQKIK
Kind of experiment: Cell Based Phenylalanine Flux Assay. The note with it: A375 R408W cells; 24 hrs with compound, then 20 μM sepiapterin and 800 μM 13C9,15N-Phenylalanine for 4 hours; 13C-Tyrosine by LC-MS; average where tested multiple times. In a few lines: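 A375 cells stably expressing human PAH R408W treated 24 h at 37° C with a 10-point 2-fold dose curve in duplicate, 0.5% DMSO. Then 20 μM sepiapterin and 800 μM 13C9,15N-Phe added for 4 h; 13C-Tyr in media measured by LC-MS to give AC50.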
Usually AC50 stands for the concentration at which the activity in the assay is half-maximal. With `CC(C)(O)c1nc(C(F)F)c(C(=O)N2CCc3[nH]cnc3[C@@H]2c2nc3c(F)cccc3o2)o1` [Example 200, (R)-(4-(difluoromethyl)-2-(2-hydroxypropan-2-yl)oxazol-5-yl)(4-(4-fluorobenzo[d]oxazol-2-yl)-6,7-dihydro-1H-imidazo[4,5-c]pyridin-5(4H)-yl)methanone], the AC50 lay in the range of 1000 to 5000 nM.

For the molecule `O=C(c1ccnn1C(F)F)N1CCc2[nH]cnc2[C@H]1c1nc2c(F)cccc2o1` [Example 201, (S)-(1-(difluoromethyl)-1H-pyrazol-5-yl)(4-(4-fluorobenzo[d]oxazol-2-yl)-6,7-dihydro-1H-imidazo[4,5-c]pyridin-5(4H)-yl)methanone], the AC50 lay within 500 to 1000 nM.

In the case of `O=C(c1ccnn1C(F)F)N1CCc2[nH]cnc2[C@@H]1c1nc2c(F)cccc2o1` [Example 202, (R)-(1-(difluoromethyl)-1H-pyrazol-5-yl)(4-(4-fluorobenzo[d]oxazol-2-yl)-6,7-dihydro-1H-imidazo[4,5-c]pyridin-5(4H)-yl)methanone], the AC50 was in the range of 1000 to 5000 nM.

Consider `CN(C)Cc1cn2ncc(C(=O)N3CCc4[nH]cnc4[C@H]3c3nc4cc(F)ccc4o3)c2cc1Cl` [Example 203, (S)-(5-chloro-6-((dimethylamino)methyl)pyrazolo[1,5-a]pyridin-3-yl)(4-(5-fluorobenzo[d]oxazol-2-yl)-6,7-dihydro-1H-imidazo[4,5-c]pyridin-5(4H)-yl)methanonee], for which the AC50 was 500 to 1000 nM.

On to `CN(C)Cc1cn2ncc(C(=O)N3CCc4[nH]cnc4[C@@H]3c3nc4cc(F)ccc4o3)c2cc1Cl` [Example 204, (R)-(5-chloro-6-((dimethylamino)methyl)pyrazolo[1,5-a]pyridin-3-yl)(4-(5-fluorobenzo[d]oxazol-2-yl)-6,7-dihydro-1H-imidazo[4,5-c]pyridin-5(4H)-yl)methanonee], for which the AC50 was in the range of 1000 to 5000 nM.

Regarding `CNc1cn2ncc(C(=O)N3CCc4[nH]cnc4[C@H]3c3nc4cc(F)ccc4o3)c2cc1Cl` [Example 205, (S)-(5-chloro-6-(methylamino)pyrazolo[1,5-a]pyridin-3-yl)(4-(5-fluorobenzo[d]oxazol-2-yl)-6,7-dihydro-1H-imidazo[4,5-c]pyridin-5(4H)-yl)methanone], the AC50 is no more than 500 nM.

Take `CNc1cn2ncc(C(=O)N3CCc4[nH]cnc4[C@@H]3c3nc4cc(F)ccc4o3)c2cc1Cl` [Example 206, (R)-(5-chloro-6-(methylamino)pyrazolo[1,5-a]pyridin-3-yl)(4-(5-fluorobenzo[d]oxazol-2-yl)-6,7-dihydro-1H-imidazo[4,5-c]pyridin-5(4H)-yl)methanone]: the AC50 lay within 1000 to 5000 nM.

On to `CN(C)c1cn2ncc(C(=O)N3CCc4[nH]cnc4[C@H]3c3nc4cc(F)ccc4o3)c2cc1Cl` [Example 207, (S)-(5-chloro-6-(dimethylamino)pyrazolo[1,5-a]pyridin-3-yl)(4-(5-fluorobenzo[d]oxazol-2-yl)-6,7-dihydro-1H-imidazo[4,5-c]pyridin-5(4H)-yl)methanone], for which the AC50 is no more than 500 nM.

For the molecule `CN(C)c1cn2ncc(C(=O)N3CCc4[nH]cnc4[C@@H]3c3nc4cc(F)ccc4o3)c2cc1Cl` [Example 208, (R)-(5-chloro-6-(dimethylamino)pyrazolo[1,5-a]pyridin-3-yl)(4-(5-fluorobenzo[d]oxazol-2-yl)-6,7-dihydro-1H-imidazo[4,5-c]pyridin-5(4H)-yl)methanone], the AC50 was 1000 to 5000 nM.

On to `Cc1nc([C@@H](C)O)oc1C(=O)N1CCc2[nH]cnc2[C@@H]1c1nc2c(F)cccc2o1` [Example 209, ((R)-4-(4-fluorobenzo[d]oxazol-2-yl)-6,7-dihydro-1H-imidazo[4,5-c]pyridin-5(4H)-yl)(2-((R)-1-hydroxyethyl)-4-methyloxazol-5-yl)methanone], for which the AC50 is no less than 5000 nM.

With `Cc1nc([C@@H](C)O)oc1C(=O)N1CCc2[nH]cnc2[C@H]1c1nc2c(F)cccc2o1` [Example 210, ((S)-4-(4-fluorobenzo[d]oxazol-2-yl)-6,7-dihydro-1H-imidazo[4,5-c]pyridin-5(4H)-yl)(2-((R)-1-hydroxyethyl)-4-methyloxazol-5-yl)methanone], the AC50 lay within 500 to 1000 nM.

Consider `CC(C)(O)c1nc(CF)c(C(=O)N2CCc3[nH]cnc3[C@H]2c2nc3cc(F)ccc3o2)o1` [Example 211, (S)-(4-(5-fluorobenzo[d]oxazol-2-yl)-6,7-dihydro-1H-imidazo[4,5-c]pyridin-5(4H)-yl)(4-(fluoromethyl)-2-(2-hydroxypropan-2-yl)oxazol-5-yl)methanone], for which the AC50 is 500 to 1000 nM.

With `CC(C)(O)c1nc(CF)c(C(=O)N2CCc3[nH]cnc3[C@@H]2c2nc3cc(F)ccc3o2)o1` [Example 212, (R)-(4-(5-fluorobenzo[d]oxazol-2-yl)-6,7-dihydro-1H-imidazo[4,5-c]pyridin-5(4H)-yl)(4-(fluoromethyl)-2-(2-hydroxypropan-2-yl)oxazol-5-yl)methanone], the AC50 is 1000 to 5000 nM.

For the molecule `O=C(c1oc(C2(O)CC2)nc1C(F)F)N1CCc2[nH]cnc2[C@@H]1c1nc2cccc(F)c2o1` [Example 213, (R)-(4-(difluoromethyl)-2-(1-hydroxycyclopropyl)oxazol-5-yl)(4-(7-fluorobenzo[d]oxazol-2-yl)-6,7-dihydro-1H-imidazo[4,5-c]pyridin-5(4H)-yl)methanone], the AC50 fell in the range of 500 to 1000 nM.

Consider `O=C(c1oc(C2(O)CC2)nc1C(F)F)N1CCc2[nH]cnc2[C@H]1c1nc2cccc(F)c2o1` [Example 214, (S)-(4-(difluoromethyl)-2-(1-hydroxycyclopropyl)oxazol-5-yl)(4-(7-fluorobenzo[d]oxazol-2-yl)-6,7-dihydro-1H-imidazo[4,5-c]pyridin-5(4H)-yl)methanone], for which the AC50 was no more than 500 nM.

For `O=C(c1oc(C2(O)CC2)nc1C(F)F)N1CCc2[nH]cnc2[C@H]1c1nc2c(F)cccc2o1` [Example 215, (S)-(4-(difluoromethyl)-2-(1-hydroxycyclopropyl)oxazol-5-yl)(4-(4-fluorobenzo[d]oxazol-2-yl)-6,7-dihydro-1H-imidazo[4,5-c]pyridin-5(4H)-yl)methanone], the AC50 is 500 to 1000 nM.

For the molecule `O=C(c1oc(C2(O)CC2)nc1C(F)F)N1CCc2[nH]cnc2[C@@H]1c1nc2c(F)cccc2o1` [Example 216, (R)-(4-(difluoromethyl)-2-(1-hydroxycyclopropyl)oxazol-5-yl)(4-(4-fluorobenzo[d]oxazol-2-yl)-6,7-dihydro-1H-imidazo[4,5-c]pyridin-5(4H)-yl)methanone], the AC50 lay in the range of 1000 to 5000 nM.

As for `Cc1nc([C@@H](C)O)oc1C(=O)N1CCc2[nH]cnc2[C@H]1c1nc2cccc(F)c2o1` [Example 217, ((S)-4-(7-fluorobenzo[d]oxazol-2-yl)-6,7-dihydro-1H-imidazo[4,5-c]pyridin-5(4H)-yl)(2-((R)-1-hydroxyethyl)-4-methyloxazol-5-yl)methanone], the concentration at half-maximal activity (AC50) is no more than 500 nM.

For the molecule `Cc1nc([C@@H](C)O)oc1C(=O)N1CCc2[nH]cnc2[C@@H]1c1nc2cccc(F)c2o1` [Example 218, ((R)-4-(7-fluorobenzo[d]oxazol-2-yl)-6,7-dihydro-1H-imidazo[4,5-c]pyridin-5(4H)-yl)(2-((R)-1-hydroxyethyl)-4-methyloxazol-5-yl)methanone], the AC50 is 1000 to 5000 nM.

In the case of `O=C(c1cnn2cc(F)c(Cl)cc12)N1CCc2[nH]cnc2[C@H]1c1nc2cc(F)ccc2o1` [Example 219, (S)-(5-chloro-6-fluoropyrazolo[1,5-a]pyridin-3-yl)(4-(5-fluorobenzo[d]oxazol-2-yl)-6,7-dihydro-1H-imidazo[4,5-c]pyridin-5(4H)-yl)methanone], the AC50 is no more than 500 nM.

In the case of `O=C(c1cnn2cc(F)c(Cl)cc12)N1CCc2[nH]cnc2[C@@H]1c1nc2cc(F)ccc2o1` [Example 220, (R)-(5-chloro-6-fluoropyrazolo[1,5-a]pyridin-3-yl)(4-(5-fluorobenzo[d]oxazol-2-yl)-6,7-dihydro-1H-imidazo[4,5-c]pyridin-5(4H)-yl)methanone], the AC50 is no less than 5000 nM.

Take `CNC(C)(C)c1nc(C(F)F)c(C(=O)N2CCc3[nH]cnc3[C@H]2c2nc3cc(F)ccc3o2)o1` [Example 221, (S)-(4-(difluoromethyl)-2-(2-(methylamino)propan-2-yl)oxazol-5-yl)(4-(5-fluorobenzo[d]oxazol-2-yl)-6,7-dihydro-1H-imidazo[4,5-c]pyridin-5(4H)-yl)methanone]: the AC50 was 500 to 1000 nM.

With `CNC(C)(C)c1nc(C(F)F)c(C(=O)N2CCc3[nH]cnc3[C@@H]2c2nc3cc(F)ccc3o2)o1` [Example 222, (R)-(4-(difluoromethyl)-2-(2-(methylamino)propan-2-yl)oxazol-5-yl)(4-(5-fluorobenzo[d]oxazol-2-yl)-6,7-dihydro-1H-imidazo[4,5-c]pyridin-5(4H)-yl)methanone], the AC50 fell in the range of 1000 to 5000 nM.

For the molecule `C[C@H](O)c1nc(C(F)F)c(C(=O)N2CCc3[nH]cnc3[C@H]2c2nc3c(F)cccc3o2)o1` [Example 227, (4-(difluoromethyl)-2-((S)-1-hydroxyethyl)oxazol-5-yl)((S)-4-(4-fluorobenzo[d]oxazol-2-yl)-6,7-dihydro-1H-imidazo[4,5-c]pyridin-5(4H)-yl)methanone], the AC50 is no more than 500 nM.
